# Results from paper PMC9149975, “The diaryl-imidazopyridazine anti-plasmodial compound, MMV652103, exhibits anti-breast cancer activity” (EXCLI Journal, 2022).
# How the values were obtained:
# PIK3C3 = biological target: T1, PIK3C3 (Homo sapiens, UniProt Q8NEB9); assay: ADP-Glo lipid kinase assay, PIK3C3; type: biochemical; conditions: 10 µM compound
# T1 construct: purchased Carna Biosciences Inc; Invitrogen Corporation
# PIK3CD/ PIK3R1 = biological target: T2, PIK3CD/ PIK3R1 (Homo sapiens, UniProt O00329); assay: ADP-Glo lipid kinase assay, PIK3CD/PIK3R1; type: biochemical; conditions: 10 µM compound
# T2 construct: purchased Carna Biosciences Inc; Invitrogen Corporation
# T2 sequence (O00329 whole entry): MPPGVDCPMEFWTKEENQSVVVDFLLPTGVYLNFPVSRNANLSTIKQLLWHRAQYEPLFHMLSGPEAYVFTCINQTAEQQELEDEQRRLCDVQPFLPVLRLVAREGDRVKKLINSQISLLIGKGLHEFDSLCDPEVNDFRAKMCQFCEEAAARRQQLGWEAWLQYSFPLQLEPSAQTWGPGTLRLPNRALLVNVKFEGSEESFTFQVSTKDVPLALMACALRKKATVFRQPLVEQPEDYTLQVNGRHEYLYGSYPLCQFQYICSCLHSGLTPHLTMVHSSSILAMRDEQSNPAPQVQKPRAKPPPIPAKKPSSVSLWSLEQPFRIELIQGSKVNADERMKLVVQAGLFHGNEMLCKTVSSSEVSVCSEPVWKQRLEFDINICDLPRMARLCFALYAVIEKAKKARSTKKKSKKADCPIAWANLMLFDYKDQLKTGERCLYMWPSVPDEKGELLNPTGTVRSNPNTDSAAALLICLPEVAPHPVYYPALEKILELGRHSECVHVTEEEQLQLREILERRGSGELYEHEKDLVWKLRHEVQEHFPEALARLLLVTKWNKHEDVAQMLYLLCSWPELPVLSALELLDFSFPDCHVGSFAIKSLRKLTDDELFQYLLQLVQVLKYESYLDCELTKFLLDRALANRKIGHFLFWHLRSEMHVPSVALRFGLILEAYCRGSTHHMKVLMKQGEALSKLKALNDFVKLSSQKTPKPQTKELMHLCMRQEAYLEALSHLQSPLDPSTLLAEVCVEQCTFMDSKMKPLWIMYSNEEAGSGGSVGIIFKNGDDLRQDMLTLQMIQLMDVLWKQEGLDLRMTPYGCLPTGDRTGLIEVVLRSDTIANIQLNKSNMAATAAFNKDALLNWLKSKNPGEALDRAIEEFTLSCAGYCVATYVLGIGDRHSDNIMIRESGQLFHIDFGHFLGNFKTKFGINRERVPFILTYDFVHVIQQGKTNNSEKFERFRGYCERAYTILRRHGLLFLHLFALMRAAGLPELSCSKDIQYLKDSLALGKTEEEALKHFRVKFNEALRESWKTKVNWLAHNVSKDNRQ
# T2 sequence (P27986 whole entry partner): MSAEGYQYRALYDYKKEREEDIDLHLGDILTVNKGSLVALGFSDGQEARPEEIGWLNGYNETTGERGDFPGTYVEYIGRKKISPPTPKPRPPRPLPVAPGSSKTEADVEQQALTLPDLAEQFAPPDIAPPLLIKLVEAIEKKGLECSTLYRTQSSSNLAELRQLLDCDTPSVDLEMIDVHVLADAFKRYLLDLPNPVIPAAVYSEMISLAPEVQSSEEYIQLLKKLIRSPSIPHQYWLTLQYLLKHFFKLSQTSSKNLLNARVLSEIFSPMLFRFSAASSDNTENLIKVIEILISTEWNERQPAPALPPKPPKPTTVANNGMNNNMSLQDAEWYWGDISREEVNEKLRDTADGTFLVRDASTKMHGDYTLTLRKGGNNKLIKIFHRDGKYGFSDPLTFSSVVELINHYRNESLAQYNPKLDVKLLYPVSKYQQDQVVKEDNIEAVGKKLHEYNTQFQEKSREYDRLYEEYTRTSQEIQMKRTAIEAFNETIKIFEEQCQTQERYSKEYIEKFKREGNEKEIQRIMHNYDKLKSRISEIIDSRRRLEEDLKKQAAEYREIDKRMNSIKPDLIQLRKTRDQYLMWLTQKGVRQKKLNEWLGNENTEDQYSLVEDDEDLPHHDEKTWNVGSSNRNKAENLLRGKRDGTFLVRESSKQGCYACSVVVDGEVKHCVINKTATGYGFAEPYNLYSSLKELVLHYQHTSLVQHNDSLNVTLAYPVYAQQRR
# MCF7 cells [1] = assay: Clonogenic survival assay, MCF7; type: cell-based, human; conditions: IC50, 2 x IC50, 4 x IC50 for 24 h
# Protocol: Cells were pre-cultured and treated with the indicated concentrations of MMV652103 for 24 h, washed, collected and re-plated, in drug-free medium, at 1000-2000 cells per well in 35 mm dishes, in triplicate. After 10-21 days the surviving cells were fixed with 3:1 methanol: acetic acid and stained with 0.5 % crystal violet (Sigma-Aldrich, USA) in 100 % methanol. Quantification of colonies was performed using ImageJ 1.5J8 software (USA) (Schneider et al., 2012[73]). Number of colonies was determined for each drug concentration and expressed as a percentage of the vehicle treated control.
# MCF7 cells [2] = assay: ROS-Glo H2O2 assay; type: cell-based, human; conditions: MCF7, 24 h, ½ IC50 and IC50
# Protocol: To determine whether MMV652103 induced oxidative stress in breast cancer cells, the levels of H2O2 were measured using the ROS-Glo™ H2O2 assay kit (G8820, Promega, Wisconsin, USA), according to the manufacturer's instructions. Briefly, cells (2500-4500 cells per well) were seeded in opaque 96 well plates. Cells were treated for 24 h with either vehicle or MMV652103 in a volume of 80 μl per well. After 18 h of incubation, 20 μl H2O2 Substrate Solution was added to each well. After 24 h of incubation 100 μl ROS-Glo™ Detection Solution (prepared by mixing 10 ml Luciferin Detection Reagent, 100 μl D-Cysteine and 100 μl Signal Enhancer Solution) was added to each well and incubated at RT for 20 min. After incubation, the luminescence was read using the GloMax® Explorer Multimode plate reader (Promega, Wisconsin, USA).
# MCF7 cells [3] = assay: GSH-Glo Glutathione assay; type: cell-based, human; conditions: MCF7, 24 h; MMV652103 ½ IC50 and IC50, doxorubicin IC50 (9.84 nM)
# Protocol: The increase in ROS levels results in a decrease in the levels of antioxidants. To confirm the presence of intracellular ROS, the levels of the antioxidant, glutathione (GSH), was measured using the GSH-Glo™ Glutathione assay kit (V6911, Promega, Wisconsin, USA), according to the manufacturer's instructions. Briefly, cells (2500-4500 cells per well) were seeded in opaque 96 well plates. Cells were treated for 24 h with either vehicle or MMV652103. Thereafter, the cell culture medium was removed and 100 μl of 1X GSH-Glo™ Reagent (prepared using Luciferin-NT substrate and Glutathione S-Transferase each diluted 1:100 in GSH-Glo™ Reaction Buffer) was added to each well. The plate was then mixed briefly on a shaker and incubated for 10 min at RT. Thereafter, 100 μl reconstituted Luciferin Detection Reagent was added to each well. The plate was then incubated for 15 min RT in order to stabilize the luminescence signal. The plate was read using the GloMax® Explorer Multimode plate reader (Promega, Wisconsin, USA).
# T47D cells = assay: Western blotting / immunofluorescence, T47D; type: cell-based, human
# Protocol: Cells were exposed to MMV652103 or vehicle for 24 and 48 h. Cell lysates were prepared, and western blotting performed as previously described (Abrahams et al., 2008[1]). Primary antibodies were: PARP1/2 (sc-7150, 1:1000), p53 (sc-126, 1:1000), p21 (sc-756, 1:1000), cyclin B1 (H-433) (sc-752, 1:500) from Santa Cruz (California, USA), phospho-H2AX (#2577, 1:1000), phospho-p38 MAP Kinase (#9211, 1:1000), LC3 (#2775, 1:1000), caspase-7 (#9492, 1:1000), caspase-8 (#9746, 1:1000), caspase-9 (#9502S, 1:1000), from Cell Signaling (Boston, MA, USA), PUMA (ab9643, 1:1000) (AbCam, Cambridge, MA, USA) and p38 (M0800, 1:5000) from Sigma (St. Louis, MO, USA). Total p38 was used as a loading control because although its activity is modulated by phosphorylation, its total levels remain unaltered in response to stimuli (Raingeaud et al., 1995[68]). Densitometry readings were obtained using ImageJ v1.50i58 and protein expression levels were represented as a ratio of protein of interest/p38 loading control normalized to the vehicle treated control sample where appropriate. All blots are representative of at least three independent experiments.
# Cells on glass coverslips were treated with either MMV652103 or vehicle for 24 and 48 h and processed for immunofluorescence with antibodies against phospho H2A.X (#2577) (1:500) or LC3B (#2775) (1:200) (Cell Signaling Technology) as previously described (Bleloch et al., 2019[8]). Cells were imaged using confocal microscopy (Carl Zeiss LSM 880 with Fast Airyscan module confocal (Oberkochen, Germany)). Multiple z layers were acquired with […] step width. Images were processed using ZEN 2012 imaging software (Carl Zeiss) and maximum intensity projections were generated. For quantification, mean fluorescence was measured from at least 20 fields of view per treatment condition and pooled from three independent replicates.
# chick embryos = assay: Chick embryo CAM model: toxicity to the embryo; type: in vivo; conditions: 4.4 μM and 22 μM
# Text: At stage E9, the chorioallantoic membrane (CAM) was dropped by drilling a small hole through the eggshell into the air sac and a 1 cm^2 window was cut in the eggshell above the CAM. Cultured MCF7 cells were detached with trypsin, washed with complete medium and suspended in PBS. […] At E18 the upper portion of the CAM was removed, transferred to PBS and the tumors cut away from normal CAM tissue and weighed. A one-way ANOVA analysis with post-tests was done. In parallel, a 1 cm^2 portion of the lower CAM was collected to evaluate the number of metastatic cells. The relative amount of metastasis was calculated as follows: Tumor cells were grafted onto the upper chorioallantoic membrane (CAM) and during metastasis the cells invade the epithelium and basement membrane of the upper CAM and move through connective tissue into the vasculature into the lower CAM. The cells in the lower CAM are then harvested and genomic DNA is extracted and analyzed by qPCR with specific primers for Alu sequences which are only found in higher primates i.e. it allows for the distinction between human tumor cells and the host chick cells. Statistical analysis was directly performed on data from the Bio-Rad CFX Manager 3.1 software.
# T1 sequence (Q8NEB9 whole entry): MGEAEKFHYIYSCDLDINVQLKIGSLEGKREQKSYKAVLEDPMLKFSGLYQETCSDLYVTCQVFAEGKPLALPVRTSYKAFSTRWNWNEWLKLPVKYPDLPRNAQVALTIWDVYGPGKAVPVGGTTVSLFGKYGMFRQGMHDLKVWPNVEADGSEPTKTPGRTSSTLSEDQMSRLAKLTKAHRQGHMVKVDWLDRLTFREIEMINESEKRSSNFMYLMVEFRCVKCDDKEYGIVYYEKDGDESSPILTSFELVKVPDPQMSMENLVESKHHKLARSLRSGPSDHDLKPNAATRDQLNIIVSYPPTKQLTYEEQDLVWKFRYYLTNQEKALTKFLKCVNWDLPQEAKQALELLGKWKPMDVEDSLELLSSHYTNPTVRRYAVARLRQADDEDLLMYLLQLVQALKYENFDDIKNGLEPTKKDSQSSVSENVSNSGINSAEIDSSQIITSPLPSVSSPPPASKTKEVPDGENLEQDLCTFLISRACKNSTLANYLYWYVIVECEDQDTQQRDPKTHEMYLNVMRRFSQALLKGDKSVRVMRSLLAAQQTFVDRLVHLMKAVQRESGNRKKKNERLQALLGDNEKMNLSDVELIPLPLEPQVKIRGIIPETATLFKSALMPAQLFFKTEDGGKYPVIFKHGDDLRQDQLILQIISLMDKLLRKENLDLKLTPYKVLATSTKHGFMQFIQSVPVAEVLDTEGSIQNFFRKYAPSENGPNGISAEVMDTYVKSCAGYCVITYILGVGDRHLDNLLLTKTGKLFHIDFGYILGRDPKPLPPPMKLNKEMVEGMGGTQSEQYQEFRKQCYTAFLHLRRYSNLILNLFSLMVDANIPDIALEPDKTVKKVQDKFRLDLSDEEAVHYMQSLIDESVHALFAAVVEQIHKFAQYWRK
compound,measurement,setting,value
CS(=O)(=O)c1ccc(-c2cnc3ccc(-c4cccc(S(C)(=O)=O)c4)nn23)cc1 [MMV652103],remaining activity at 10 µM,PIK3C3,24%
same,remaining activity at 10 µM,PIK3CD/ PIK3R1,3%
same,number of MCF7 cell colonies,MCF7 cells [1],dose-dependent reduction
same,levels of H2O2,MCF7 cells [2],significant increase
same,levels of GSH,MCF7 cells [3],significant decrease
same,"levels of phosphorylated p38, T47D",T47D cells; western blot,increased
same,"p21 levels, T47D",T47D cells; western blot,increased
same,"levels of p53, T47D","T47D cells; western blot, mutant non-functional p53",no effect
same,"levels of γH2AX, T47D","T47D cells; ½ IC50 and IC50, 24 and 48 h",dose- and time-dependent increase
same,death ratio of chick embryos,chick embryos,did not result in an abnormal death ratio
same,macroscopic abnormalities of chick embryos,chick embryos; results not shown,nor did it lead to any macroscopic abnormalities
